Source: article PMC4880308, “Elongation Factor Tu Prevents Misediting of Gly-tRNA(Gly) Caused by the Design Behind the Chiral Proofreading Site of D-Aminoacyl-tRNA Deacylase” (PLoS Biology, 2016)

T1: PfDTD (D-aminoacyl-tRNA deacylase from Plasmodium falciparum) (Plasmodium falciparum, UniProt Q8IIS0)
T1 construct: gene DTD; recombinant; C-terminal His-tagged U-15N protein for NMR; dimer with cross-subunit Gly-cisPro motif in the active site
T1 sequence (Q8IIS0 1-164): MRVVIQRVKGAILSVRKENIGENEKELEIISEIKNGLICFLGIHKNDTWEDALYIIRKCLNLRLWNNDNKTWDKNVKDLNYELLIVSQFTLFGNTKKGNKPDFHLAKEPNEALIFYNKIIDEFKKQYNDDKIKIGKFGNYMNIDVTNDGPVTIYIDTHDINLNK

B1: D-aminoacyl-tRNA deacylase from Plasmodium falciparum (enzyme)
chain: T1 sequence (Q8IIS0 1-164)
notes: D-aminoacyl-tRNA deacylase (DTD), Plasmodium falciparum, UniProt Q8IIS0; no tag is stated for the crystallised protein; The crystal also holds the small-molecule ligand Gly3AA; also called PfDTD; DTD; source: cloned, expressed, and purified as described in [15]

Experiments:
[1] = biological target: T1, PfDTD (D-aminoacyl-tRNA deacylase from Plasmodium falciparum); test: 2D […]-1H TROSY NMR titration (chemical shift perturbation); assay type: binding; settings: substrate analog; 50 mM HEPES pH 7.0, 50 mM NaCl; 0.2 mM protein, up to 3 mM ligand
[2] = biological target: the molecule itself; test: crystal structure; co-crystal of PfDTD with Gly3AA (molar ratio 1:20), P2(1), eight monomers in the asymmetric unit; 0.1 M HEPES pH 7.5, 0.4 M NaCl, 28% PEG3350

Molecule | 2D 15N-1H TROSY NMR titration (chemical shift perturbation) [1] | binding result [2]
C[C@@H](N)C(=O)N[C@H]1[C@@H](O)[C@H](n2cnc3c(N)ncnc32)O[C@@H]1CO [D-Ala3AA, D-alanyl-3′-aminoadenosine] | the data indicated binding of D-Ala3AA but not of L-Ala3AA | –
B1 | – | binds
